Measurements from patent US11306101B2 (Celgene Corporation, priority 2019, dated 2022).

Target: T1, CK1α (Homo sapiens, UniProt P48729+Q96SW2)
T1 construct: expressed in transfected cells
Test: CK1α ePL degradation assay in MDS-L cells
Type: cell-based
Settings: MDS-L cells expressing ePL-tagged CK1α; for DC50: concentration giving 50% CK1α degradation vs DMSO control; for Y: lowest measured CK1α level normalized to DMSO control
Method in brief: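 Degradation efficiency is reported as Y value, the minimum CK1α level (percent of DMSO control) across doses. Readout used InCELL Hunter luminescent detection after MDS-L cell exposure at 37° C for stated times, doses 10 μM down to 0.0005 μM in 3-fold steps.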

T1 sequence (P48729 whole entry): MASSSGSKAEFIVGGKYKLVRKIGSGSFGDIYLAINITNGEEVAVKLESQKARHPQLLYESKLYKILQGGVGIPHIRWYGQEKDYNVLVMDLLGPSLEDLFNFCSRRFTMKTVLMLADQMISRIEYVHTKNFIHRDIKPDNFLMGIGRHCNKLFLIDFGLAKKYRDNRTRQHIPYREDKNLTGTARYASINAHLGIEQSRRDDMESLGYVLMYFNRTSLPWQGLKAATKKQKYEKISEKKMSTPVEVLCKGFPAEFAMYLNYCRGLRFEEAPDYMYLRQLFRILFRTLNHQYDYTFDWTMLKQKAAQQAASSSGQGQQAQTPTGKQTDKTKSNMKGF
T1 sequence (Q96SW2 whole entry): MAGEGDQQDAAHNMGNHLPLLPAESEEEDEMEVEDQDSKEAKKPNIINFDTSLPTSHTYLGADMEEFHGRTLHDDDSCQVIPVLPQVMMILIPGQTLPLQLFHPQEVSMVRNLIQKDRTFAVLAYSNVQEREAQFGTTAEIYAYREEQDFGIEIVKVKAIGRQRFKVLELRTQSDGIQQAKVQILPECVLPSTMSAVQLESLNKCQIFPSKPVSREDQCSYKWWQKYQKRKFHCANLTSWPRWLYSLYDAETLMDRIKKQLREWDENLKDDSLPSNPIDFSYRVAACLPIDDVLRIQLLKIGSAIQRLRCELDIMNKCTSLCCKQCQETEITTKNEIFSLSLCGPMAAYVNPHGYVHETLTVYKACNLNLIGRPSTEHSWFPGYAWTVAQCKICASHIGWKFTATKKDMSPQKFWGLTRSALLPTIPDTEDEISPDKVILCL
T1 sequence (Q16531 whole entry partner): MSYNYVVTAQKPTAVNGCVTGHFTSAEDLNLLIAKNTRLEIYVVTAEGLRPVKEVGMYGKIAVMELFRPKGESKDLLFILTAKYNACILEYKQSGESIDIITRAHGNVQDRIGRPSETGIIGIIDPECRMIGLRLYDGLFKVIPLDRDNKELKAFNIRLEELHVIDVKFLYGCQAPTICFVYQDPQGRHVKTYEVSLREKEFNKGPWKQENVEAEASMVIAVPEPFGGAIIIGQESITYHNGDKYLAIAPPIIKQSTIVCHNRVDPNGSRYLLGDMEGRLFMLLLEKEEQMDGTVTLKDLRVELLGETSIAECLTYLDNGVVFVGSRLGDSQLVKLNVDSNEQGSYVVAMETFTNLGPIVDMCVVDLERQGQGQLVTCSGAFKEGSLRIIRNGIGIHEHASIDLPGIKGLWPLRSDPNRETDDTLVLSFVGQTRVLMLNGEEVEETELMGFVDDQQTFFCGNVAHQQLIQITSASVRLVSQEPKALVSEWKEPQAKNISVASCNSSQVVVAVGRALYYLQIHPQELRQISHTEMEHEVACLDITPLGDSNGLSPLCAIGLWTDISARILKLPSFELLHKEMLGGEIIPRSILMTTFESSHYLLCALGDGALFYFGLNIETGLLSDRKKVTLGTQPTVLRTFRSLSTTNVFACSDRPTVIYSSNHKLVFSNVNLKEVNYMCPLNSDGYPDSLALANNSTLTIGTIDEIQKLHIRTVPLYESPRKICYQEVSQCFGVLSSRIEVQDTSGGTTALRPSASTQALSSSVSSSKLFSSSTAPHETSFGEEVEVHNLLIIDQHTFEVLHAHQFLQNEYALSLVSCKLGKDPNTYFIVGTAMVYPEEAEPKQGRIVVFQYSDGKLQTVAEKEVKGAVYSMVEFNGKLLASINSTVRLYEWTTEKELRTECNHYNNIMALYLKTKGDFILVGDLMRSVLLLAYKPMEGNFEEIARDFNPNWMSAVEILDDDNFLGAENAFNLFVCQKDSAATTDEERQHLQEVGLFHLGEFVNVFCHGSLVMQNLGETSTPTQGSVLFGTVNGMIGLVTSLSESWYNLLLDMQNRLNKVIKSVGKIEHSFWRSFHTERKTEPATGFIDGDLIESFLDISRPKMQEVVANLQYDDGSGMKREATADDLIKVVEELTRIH

| Compound | DC50 [µM] | Y |
| --- | --- | --- |
| O=C1CCC(N2Cc3cc(C(=O)N[C@H](c4ncccc4F)C(F)(F)F)ccc3C2=O)C(=O)N1 (stereo partly drawn) [Example 110, 2-(2,6-dioxopiperidin-3-yl)-1-oxo-N-((R)-2,2,2-trifluoro-1-(3-fluoropyridin-2-yl)ethyl)isoindoline-5-carboxamide] | < 0.1 | * (a Y value (shown as *) of 0<Y≤20%) |
| O=C1CC[C@H](N2Cc3cc(C(=O)N[C@H](c4ccc(F)cc4)C(F)(F)F)ccc3C2=O)C(=O)N1 [Example 103, 2-((S)-2,6-dioxopiperidin-3-yl)-1-oxo-N-((R)-2,2,2-trifluoro-1-(4-fluorophenyl)ethyl)isoindoline-5-carboxamide] | < 0.1 | * (a Y value (shown as *) of 0<Y≤20%) |
| CC(C)(C#N)[C@@H](NC(=O)c1ccc2c(c1)CN(C1CCC(=O)NC1=O)C2=O)C(F)(F)F (stereo partly drawn) [Example 87, N-((R)-3-cyano-1,1,1-trifluoro-3-methylbutan-2-yl)-2-(2,6-dioxopiperidin-3-yl)-1-oxoisoindoline-5-carboxamide] | 0.1 to 0.5 | ** (a Y value (shown as**) of 20%<Y≤35%) |
| O=C1CCC(N2Cc3c(ccc(C(=O)N[C@H](c4ncc(F)cc4Cl)C(F)(F)F)c3F)C2=O)C(=O)N1 (stereo partly drawn) [Example 183, N-((R)-1-(3-chloro-5-fluoropyridin-2-yl)-2,2,2-trifluoroethyl)-2-(2,6-dioxopiperidin-3-yl)-4-fluoro-1-oxoisoindoline-5-carboxamide] | < 0.1 | * (a Y value (shown as *) of 0<Y≤20%) |
| O=C1CCC(N2Cc3cc(C(=O)N[C@H](CC(F)(F)F)c4ccccc4F)ccc3C2=O)C(=O)N1 (stereo partly drawn) [Example 195, 2-(2,6-dioxopiperidin-3-yl)-1-oxo-N-((R)-3,3,3-trifluoro-1-(2-fluorophenyl)propyl)isoindoline-5-carboxamide] | < 0.1 | * (a Y value (shown as *) of 0<Y≤20%) |
| O=C1CCC(N2Cc3c(ccc(C(=O)N[C@H](c4ccc(F)cc4)C(F)(F)F)c3Cl)C2=O)C(=O)N1 (stereo partly drawn) [Example 153, 4-chloro-2-(2,6-dioxopiperidin-3-yl)-1-oxo-N-((R)-2,2,2-trifluoro-1-(4-fluorophenyl)ethyl)isoindoline-5-carboxamide] | 0.1 to 0.5 | ** (a Y value (shown as**) of 20%<Y≤35%) |
| O=C1CCC(N2Cc3cc(C(=O)N[C@H](c4ccc(F)cc4)C(F)F)ccc3C2=O)C(=O)N1 (stereo partly drawn) [Example 111, N-((R)-2,2-difluoro-1-(4-fluorophenyl)ethyl)-2-(2,6-dioxopiperidin-3-yl)-1-oxoisoindoline-5-carboxamide] | < 0.1 | * (a Y value (shown as *) of 0<Y≤20%) |
| O=C1CC[C@@H](N2Cc3cc(C(=O)N[C@H](c4ccccc4)C(F)(F)F)ccc3C2=O)C(=O)N1 [Example 60, 2-((R)-2,6-dioxopiperidin-3-yl)-1-oxo-N-((R)-2,2,2-trifluoro-1-phenylethyl)isoindoline-5-carboxamide] | < 0.1 | * (a Y value (shown as *) of 0<Y≤20%) |
| Cc1ccc([C@H](C)NC(=O)c2ccc3c(c2)CN(C2CCC(=O)NC2=O)C3=O)cc1 (some centres unmarked) [Example 7] | < 0.1 | * (a Y value (shown as *) of 0<Y≤20%) |
| CN(C)Cc1ccc([C@@H](NC(=O)c2ccc3c(c2)CN(C2CCC(=O)NC2=O)C3=O)C(F)(F)F)c(Cl)c1 (stereo partly drawn) [Example 198, N-((R)-1-(2-chloro-4-((dimethylamino)methyl)phenyl)-2,2,2-trifluoroethyl)-2-(2,6-dioxopiperidin-3-yl)-1-oxoisoindoline-5-carboxamide] | < 0.1 | * (a Y value (shown as *) of 0<Y≤20%) |
| CC1([C@@H](NC(=O)c2ccc3c(c2)CN(C2CCC(=O)NC2=O)C3=O)C(F)(F)F)CCC1 (stereo partly drawn) [Example 74, 2-(2,6-dioxopiperidin-3-yl)-1-oxo-N-((R)-2,2,2-trifluoro-1-(1-methylcyclobutyl)ethyl)isoindoline-5-carboxamide] | < 0.1 | * (a Y value (shown as *) of 0<Y≤20%) |
| C[C@H](NC(=O)c1ccc2c(c1)CN(C1CCC(=O)NC1=O)C2=O)c1cccnc1 (some centres unmarked) [Example 19] | 0.1 to 0.5 | ** (a Y value (shown as**) of 20%<Y≤35%) |
| CN1CCN(c2ccccc2[C@@H](NC(=O)c2ccc3c(c2)CN(C2CCC(=O)NC2=O)C3=O)C(F)(F)F)CC1 (stereo partly drawn) [Example 206, 2-(2,6-dioxopiperidin-3-yl)-1-oxo-N-((R)-2,2,2-trifluoro-1-(2-(4-methylpiperazin-1-yl)phenyl)ethyl)isoindoline-5-carboxamide] | < 0.1 | * (a Y value (shown as *) of 0<Y≤20%) |
| CC(C)[C@H](NC(=O)c1ccc2c(c1)CN(C1CCC(=O)NC1=O)C2=O)c1ccc(Cl)cc1 (stereo partly drawn) [Example 177, N-((S)-1-(4-chlorophenyl)-2-methylpropyl)-2-(2,6-dioxopiperidin-3-yl)-1-oxoisoindoline-5-carboxamide] | < 0.1 | * (a Y value (shown as *) of 0<Y≤20%) |
| C[C@H](NC(=O)c1ccc2c(c1)CN(C1CCC(=O)NC1=O)C2=O)C1CCC1 (some centres unmarked) [Example 9] | < 0.1 | ** (a Y value (shown as**) of 20%<Y≤35%) |
| O=C1CCC(N2Cc3cc(C(=O)N[C@H](c4cncnc4)C(F)(F)F)ccc3C2=O)C(=O)N1 (stereo partly drawn) [Example 66, 2-(2,6-dioxopiperidin-3-yl)-1-oxo-N-((R)-2,2,2-trifluoro-1-(pyrimidin-5-yl)ethyl)isoindoline-5-carboxamide] | 0.5 to 1 | ** (a Y value (shown as**) of 20%<Y≤35%) |
| O=C1CCC(N2Cc3cc(C(=O)N[C@H](C4CCC(C(F)(F)F)CC4)C(F)(F)F)ccc3C2=O)C(=O)N1 (stereo partly drawn) [Example 71, 2-(2,6-dioxopiperidin-3-yl)-1-oxo-N-((1R)-2,2,2-trifluoro-1-(4-(trifluoromethyl)cyclohexyl)ethyl)isoindoline-5-carboxamide] | < 0.1 | * (a Y value (shown as *) of 0<Y≤20%) |
| CN1CCN(Cc2ccc([C@@H](NC(=O)c3ccc4c(c3)CN(C3CCC(=O)NC3=O)C4=O)C(F)(F)F)cc2)CC1 (stereo partly drawn) [Example 185, 2-(2,6-dioxopiperidin-3-yl)-1-oxo-N-((R)-2,2,2-trifluoro-1-(4-((4-methylpiperazin-1-yl)methyl)phenyl)ethyl)isoindoline-5-carboxamide] | 0.1 to 0.5 | * (a Y value (shown as *) of 0<Y≤20%) |
| C[C@H](NC(=O)c1ccc2c(c1)CN(C1CCC(=O)NC1=O)C2=O)c1ccccc1 (stereo partly drawn) [Example 1, 2-(2,6-Dioxopiperidin-3-yl)-1-oxo-N—((S)-1-phenylethyl)isoindoline-5-carboxamide] | < 0.1 | * (a Y value (shown as *) of 0<Y≤20%) |
| CN(C)Cc1ccc([C@@H](NC(=O)c2ccc3c(c2F)CN(C2CCC(=O)NC2=O)C3=O)C(F)(F)F)cc1 (stereo partly drawn) [Example 186, N-((R)-1-(4-((dimethylamino)methyl)phenyl)-2,2,2-trifluoroethyl)-2-(2,6-dioxopiperidin-3-yl)-4-fluoro-1-oxoisoindoline-5-carboxamide] | < 0.1 | * (a Y value (shown as *) of 0<Y≤20%) |
| COc1ccc([C@@H](NC(=O)c2ccc3c(c2)CN(C2CCC(=O)NC2=O)C3=O)C(F)(F)F)cc1 (stereo partly drawn) [Example 35, 2-(2,6-dioxopiperidin-3-yl)-1-oxo-N-((R)-2,2,2-trifluoro-1-(4-methoxyphenyl)ethyl)isoindoline-5-carboxamide] | < 0.1 | * (a Y value (shown as *) of 0<Y≤20%) |
| O=C1CCC(N2Cc3cc(C(=O)N[C@H](c4ccc(OC(F)(F)F)cc4)C(F)(F)F)ccc3C2=O)C(=O)N1 (stereo partly drawn) [Example 41, 2-(2,6-dioxopiperidin-3-yl)-1-oxo-N-((R)-2,2,2-trifluoro-1-(4-(trifluoromethoxy)phenyl)ethyl)isoindoline-5-carboxamide] | 0.1 to 0.5 | * (a Y value (shown as *) of 0<Y≤20%) |
| O=C1CCC(N2Cc3c(ccc(C(=O)N[C@H](c4ccc(Cl)cc4Cl)C(F)(F)F)c3F)C2=O)C(=O)N1 (stereo partly drawn) [Example 164, N-((R)-1-(2,4-dichlorophenyl)-2,2,2-trifluoroethyl)-2-(2,6-dioxopiperidin-3-yl)-4-fluoro-1-oxoisoindoline-5-carboxamide] | 0.1 to 0.5 | ** (a Y value (shown as**) of 20%<Y≤35%) |
| O=C1CCC(N2Cc3cc(C(=O)N[C@H](c4ccc(CN5CC(F)(F)C5)cc4)C(F)(F)F)ccc3C2=O)C(=O)N1 (stereo partly drawn) [Example 188, N-((R)-1-(4-((3,3-difluoroazetidin-1-yl)methyl)phenyl)-2,2,2-trifluoroethyl)-2-(2,6-dioxopiperidin-3-yl)-1-oxoisoindoline-5-carboxamide] | 0.1 to 0.5 | ** (a Y value (shown as**) of 20%<Y≤35%) |
| CC(C)[C@@H](NC(=O)c1ccc2c(c1)CN(C1CCC(=O)NC1=O)C2=O)c1ccccc1 (stereo partly drawn) [Example 124, 2-(2,6-dioxopiperidin-3-yl)-N-((R)-2-methyl-1-phenylpropyl)-1-oxoisoindoline-5-carboxamide] | < 0.1 | * (a Y value (shown as *) of 0<Y≤20%) |
| C[C@H](NC(=O)c1ccc2c(c1)CN(C1CCC(=O)NC1=O)C2=O)c1cccc(C#N)c1 (some centres unmarked) [Example 11] | 0.1 to 0.5 | ** (a Y value (shown as**) of 20%<Y≤35%) |
| O=C1CCC(N2Cc3c(ccc(C(=O)N[C@H](c4ccc(F)cc4)C(F)F)c3F)C2=O)C(=O)N1 (stereo partly drawn) [Example 112, N-((R)-2,2-difluoro-1-(4-fluorophenyl)ethyl)-2-(2,6-dioxopiperidin-3-yl)-4-fluoro-1-oxoisoindoline-5-carboxamide] | < 0.1 | * (a Y value (shown as *) of 0<Y≤20%) |
| O=C1CCC(N2Cc3cc(C(=O)N[C@H](c4ccccc4N4CCOCC4)C(F)(F)F)ccc3C2=O)C(=O)N1 (stereo partly drawn) [Example 205, 2-(2,6-dioxopiperidin-3-yl)-1-oxo-N-((R)-2,2,2-trifluoro-1-(2-morpholinophenyl)ethyl)isoindoline-5-carboxamide] | < 0.1 | * (a Y value (shown as *) of 0<Y≤20%) |
